Data on 5 compounds can be found in patent US9126983B2, “Extracts from kibdelos porangium as antibacterial agents” (Merck Sharp & Dohme Corp., priority 2009, dated 2015).

In brackets after ≈: the same amount, converted by molar mass. Read-outs that look alike come from different tables or passages of the source.

The test system of assay [1] is Bacillus subtilis (MB964). Description: Microbroth dilution MIC, Bacillus subtilis. In kind it is cell-based. The settings on record: cation-adjusted Mueller Hinton broth, no visible growth; for MIC: read-out: MIC-100. An excerpt: (§1) Selected isolates were subcultured onto either […] […] Isolates were subcultured twice before assay. […] Plates were read to no growth.
(In general: In broth dilution the organism is exposed to a series of concentrations in liquid medium.)

The subject of assay [2] is Haemophilus influenzae (MB4572). Description: Microbroth dilution MIC, Haemophilus influenzae. In kind it is cell-based. The settings on record: Haemophilus test medium; for MIC: read-out: MIC-100. An excerpt: The strain of Haemophilus influenzae is a mouse pathogen used for in vivo testing at Merck. Selected isolates were subcultured onto either […] […] Isolates were subcultured twice before assay. […] Plates were read to no growth.

Assay [3] concerns Candida albicans (MY1055). Description: Microbroth dilution MIC, Candida albicans control. In kind it is cell-based. The conditions noted are these: Candida albicans (MY1055) control strain, RPMI 1640; for MIC: read-out: MIC-100.
Source text: as §1

Assay [4] deals with Staphylococcus aureus (MB2865). Nature of the assay: Microbroth dilution MIC, Staphylococcus aureus MB2865. In kind it is cell-based. The settings on record: cation-adjusted Mueller Hinton broth, no visible growth. An excerpt:
The Staphylococcus aureus strains used were obtained from the Merck Culture Collection, and are identified as MB2865 and MB5957. […] Selected isolates were subcultured onto either […] Isolates were subcultured twice before assay. […] Plates were read to no growth.

The subject of assay [5] is Enterococcus faecalis (CL8516). Nature of the assay: Microbroth dilution MIC, Enterococcus faecalis. In kind it is cell-based. The conditions noted are these: cation-adjusted Mueller Hinton broth, no visible growth.
Assay [6] deals with Streptococcus pneumoniae (CL2883). Description: Microbroth dilution MIC, Streptococcus pneumoniae. In kind it is cell-based. The conditions noted are these: cation-adjusted Mueller Hinton broth + lysed horse blood.
Assay [7] has as its system Escherichia coli envA1 tolC (MB5746). Description: microbe, parasite or virus in culture. The conditions noted are these: read-out: MIC-100.
Assay [8] relates to Clostridium difficile (ATCC 43596). Nature of the assay: Agar dilution MIC, Clostridium difficile ATCC 43596. In kind it is cell-based. The conditions noted are these: Clostridioides difficile, ATCC43596, 48 h. How it is done: (§2) Drug dilutions and drug-supplemented agar plates were prepared manually.
(§3) The growth and test media were those recommended by the Clinical and Laboratory Standards Institute (CLSI) for growth and susceptibility testing of anaerobes. See Clinical and Laboratory Standards Institute (CLSI). Methods for Antimicrobial Susceptibility Testing of Anaerobic Bacteria; Approved Standard—Seventh Edition. CLSI document M11-A7 [ISBN1-56238-626-3]. Clinical and Laboratory Standards Institute, 940 West Valley Road, Suite 1400, Wayne, Pa. 19087-1898 USA, 2007.
(§4) This medium is referred to as Supplemented Brucella Agar (SBA).
(§5) The media were prepared as follows: Brucella agar was weighed and water was added to the final volume minus the volume of the hemin, vitamin K, and lysed sheep blood. The agar was dissolved by boiling. Hemin (5 μg/ml) and vitamin K (1 μg/ml) were added to the agar and it was autoclaved for 23 minutes at 121° C. The agar was allowed to cool to 50° C. and 18.5 ml was dispensed into sterile glass tubes. Immediately prior to pouring the plates 1 ml of lysed sheep blood and 0.5 ml of the appropriate drug dilution were added to the tube. The contents of the tube were gently mixed by inverting the tube, and the drug-supplemented agar was poured into a petri dish. […]
(§6) The inocula for the MIC assay were prepared inside the Bactron II anaerobe chamber, as follows. […] The MIC was read per CLSI guidelines.
A general note: In agar dilution the substance is mixed into plates at graded concentrations.

The test system of assay [9] is Clostridium difficile (ATCC 700057). Nature of the assay: Agar dilution MIC, Clostridium difficile ATCC 700057. In kind it is cell-based. The conditions noted are these: Clostridioides difficile. How it is done: as §2, §3, §4, §5, §6
The test system of assay [10] is Escherichia coli envA1 tolC (MB5746). The settings on record: cell-wall permeable strain, cation-adjusted Mueller Hinton broth.
For assay [11], the system named is Clostridium difficile (ATCC 700057). The conditions noted are these: published CLSI quality control range; cited from earlier work.

As for `O=C(O)c1cn(C2CC2)c2cc(N3CCNCC3)c(F)cc2c1=O` [Ciprofloxacin], the MIC was 0.06 µg/mL (≈ 0.181 µM) in [1], < 0.015 µg/mL in [2] and > 16 µg/mL in assay [3].
As for `CC[C@H]1OC(=O)[C@H](C)[C@@H](O[C@H]2C[C@@](C)(OC)[C@@H](O)[C@H](C)O2)[C@H](C)[C@@H](O[C@@H]2O[C@H](C)C[C@H](N(C)C)[C@H]2O)[C@](C)(OC)C[C@@H](C)C(=O)[C@H](C)[C@@H](O)[C@]1(C)O` [Clarithromycin], the MIC in assay [1] was 0.06 µg/mL (≈ 0.0802 µM); in [4] (read-out: MIC-100), 0.12 µg/mL (≈ 0.16 µM); in [5] (read-out: MIC-100), 2 µg/mL (≈ 2.67 µM); in [6] (read-out: MIC-100), 0.03 µg/mL; in [2] it was 4 µg/mL (≈ 5.35 µM); in assay [3] it was > 16 µg/mL. In assay [7], the MIC is 0.12 µg/mL (≈ 0.16 µM).
On to `Cc1ncc([N+](=O)[O-])n1CCO` [Metronidazole], for which the MIC came out at 0.25 µg/mL (≈ 1.46 µM) in assay [8] and 0.25 µg/mL (≈ 1.46 µM) in [9] (ATCC700057, Clostridium difficile (ATCC 700057), agar dilution, Supplemented Brucella Agar, anaerobic, 35° C., 48 h, read-out: MIC).
Consider `CC1(C)S[C@@H]2[C@H](NC(=O)Cc3ccccc3)C(=O)N2[C@H]1C(=O)O` [Penicillin G], for which the MIC-100 in assay [1] is <0.06 µg/mL; in assay [4], <0.06 µg/mL; in [5] it was 0.5 µg/mL (≈ 1.5 µM); in assay [6], <0.06 µg/mL; in [2], 0.25 µg/mL (≈ 0.748 µM); in [3] it was >64 µg/mL. The compound also came in with an MIC-100 in [10] of 8 µg/mL (≈ 23.9 µM).
Regarding `CN[C@H](CC(C)C)C(=O)N[C@H]1C(=O)N[C@@H](CC(N)=O)C(=O)N[C@H]2C(=O)N[C@H]3C(=O)N[C@H](C(=O)N[C@H](C(=O)O)c4cc(O)cc(O)c4-c4cc3ccc4O)[C@H](O)c3ccc(c(Cl)c3)Oc3cc2cc(c3O[C@@H]2O[C@H](CO)[C@@H](O)[C@H](O)[C@H]2O[C@H]2C[C@](C)(N)[C@H](O)[C@H](C)O2)Oc2ccc(cc2Cl)[C@H]1O` [Vancomycin, vancomycin], the MIC was found to be 1 µg/mL (≈ 0.69 µM) in assay [8] and 2 µg/mL (≈ 1.38 µM) in assay [9] (ATCC700057, 48 h). Further, in [11], the “CLSI quality control range (MIC)” value was 2 (0.5-4)^1 μg/mL.
